According to PubChem BioAssay AID179 (DTP/NCI, 2004):
Several values for one entry are separate records, joined by “and”; a condition that tells them apart may be missing. Identical values can stand only once. Activity calls are given as the source filed them.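 How the source made its calls: active means compounds giving half or more protection of infected cells from virus-caused growth loss, again on retest; inactive means the rest.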 Where a SMILES comes first, the peptide text is derived from it. Bridges are numbered along the chain shown (N, C = ends). Roman numbers before positions name the chains, in order. The star is where a group is joined. Bz = O=C(c1ccccc1)*

Test system: CEM cells HIV-1 protection, formazan growth assay
Experiment: NCI AIDS Antiviral Assay
Conditions: for IC50: measured here: growth of uninfected CEM cells
Method in brief: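 Steps: treat uninfected and HIV-1-infected human CEM cells at five drug levels; quantify growth by soluble formazan; retest any compound reaching 50% protection; classify actives from the retest.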

| SMILES | EC50 | IC50 | outcome |
| --- | --- | --- | --- |
| COC(=O)CC[C@@H](C)C1CCC2[C@@H]3CC[C@@H]4CC(COS(=O)(=O)c5ccc(C)cc5)CC[C@]4(C)C3CC[C@@]21C (stereo not given in full) | > 8.32 µM | > 8.32 µM |  |
| COC(=O)c1c2c(cc3c1CC1(C3)Cc3cc4c(c(C(=O)OC)c3C1)CCC4)CCC2 | > 200 µM | > 200 µM |  |
| Cn1ccn2c3nc4ccccc4nc3c(=O)c(C#N)c12 |  |  | inactive |
| Cc1cccc(C)c1NC(=O)CCCC(=O)CC(=O)/C=C/c1ccccc1 | > 501 µM | > 501 µM |  |
| Cc1ccccc1/C=C/c1csnn1 | > 129 µM | > 129 µM |  |
| C#CCOC(=O)c1ccccc1OC(C)=O | > 200 µM | > 200 µM |  |
| CC(=O)CCCCn1c(=O)c2c(ncn2C)n(C)c1=O | > 891 µM | > 891 µM |  |
| N.N.N.N.N.O=S(=O)([O-])S(=O)(=O)[O-].[Co+3] | > 42.7 µM | > 42.7 µM |  |
| S=C(N/N=C/c1ccccn1)N1CCCCC1 | > 0.2 µM | 0.011 µM |  |
| Cc1ccc(-n2cc(-c3ccc(Cl)cc3)c(C#N)c2N)cc1 | > 200 µM | 22.4 µM |  |
| O=C(O)CN1C(=O)CSC1=S | > 1290 µM | 794 µM |  |
| CC(C)(NC(=O)C(C)(C)NC(=O)OCc1ccccc1)C(=O)O (HELM PEPTIDE1{[O=C(OCc1ccccc1)[*:2]].[Aib].[Aib]}$$$$V2.0) | > 200 µM | > 200 µM |  |
| O=C1C(=O)N(c2ccc(Cl)cc2Cl)C(=O)C(=O)C1c1nc2ccccc2s1 | > 85.1 µM | > 85.1 µM |  |
| Cc1ccc(S(=O)(=O)c2[nH]cc(-c3c[nH]c(S(=O)(=O)c4ccc(C)cc4)c3C3CCCCC3)c2C2CCCCC2)cc1 |  |  | inactive |
| CC(C)[Si](OC1=C(C(=O)Nc2ccccc2Cl)CCCCC1)(C(C)C)C(C)C | > 200 µM | 70.8 µM |  |
| c1ccc(-c2csc3[n+]2CCN3)cc1 | > 200 µM | 126 µM |  |
| Cc1c(C)c(C)c(-n2c(=O)n(C)c(=O)n2C(C)(C)C)c(C)c1C | > 200 µM | 3.31 µM |  |
| CC(=O)OC1CC2CC(=O)CC1N2C (stereo not given) | > 200 µM | > 200 µM |  |
| O=S1(=O)c2ccccc2C(O)(c2ccccc2)c2ccccc21 | > 200 µM | 123 µM |  |
| C1CCC(N2CSCSC2)CC1 | > 200 µM | 107 µM |  |
| CCC(/C=C/C1OC(=O)C=CC1C)=C\C(C)C/C=C/C(C)=C/C(C)C(=O)C(C)C(O)C(C)C/C(C)=C/C(=O)O (stereo not given) |  |  | inactive |

| SMILES | EC50 | IC50 | outcome |
| --- | --- | --- | --- |
| CC(C)(C)OC(=O)N1CCCC1C(=O)NCCNc1ccc(NCCNC(=O)C2CCCN2C(=O)OC(C)(C)C)c2c1C(=O)c1ccccc1C2=O (stereo not given) | > 151 µM | 6.61 µM |  |
| O=C1c2scc(-c3ccccc3)c2-n2cccc21 | > 200 µM | 17.8 µM |  |
| O=c1oc2c3ccccc3c3ccccc3c2c2oc3c4ccccc4c4ccccc4c3c12 | 0.0209 µM | 0.955 µM |  |
| NC(=O)SCC(=O)NNc1ccccc1 | > 200 µM | 4.47 µM |  |
| COC(=O)c1cc(C(=CCCCC(=O)O)c2cc(Cl)c(OC)c(C(=O)OC)c2)cc(Cl)c1OC | > 200 µM | > 200 µM |  |
| COc1ccc(CCN(C)CCC[C@](C#N)(c2ccc(OC)c(OC)c2)C(C)C)cc1OC | > 200 µM | 38.9 µM |  |
| c1ccc(CN2COc3c(ccc4ccccc34)C2)cc1 | > 200 µM | 55 µM |  |
| Cn1c2ccc([N+](=O)[O-])cc2c(=O)n1Cc1ccccc1F | > 200 µM | 58.9 µM |  |
| O=S1(=O)COc2ccccc2-c2ncncc21 | 47.9 µM | > 200 µM |  |
| O=C(/C=C/c1cc(O)c(O)c(O)c1)OCCc1ccccc1 | > 50.1 µM | 15.5 µM |  |
| CCN1CC2(OC(=O)c3ccccc3NC(C)=O)CCC(OC)C34C1C(CC23)C1(O)CC(OC)C2CC4C1(O)C2OC (stereo not given) |  |  | inactive |
| Cn1c(COc2ccc(/C=N\NC(=O)c3ccc(C(=O)N/N=C/c4ccc(OCc5c[n+]6ccccc6n5C)cc4)cc3)cc2)c[n+]2ccccc12 | 4.57 µM | 9.55 µM |  |
| Cc1cc2oc(-c3ccccc3)c(C)c(=O)c2c2c1OC(C)(C)S2 | > 39.8 µM | > 39.8 µM |  |
| COc1ccc(CN2CCCN(Cc3ccc(OC)cc3)C2c2cc([N+](=O)[O-])ccc2O)cc1 | > 200 µM | 28.8 µM |  |
| c1ccc(-c2nc3ccccc3nc2SCc2cccnc2)cc1 | > 7.94 µM | > 7.94 µM |  |
| CSc1ccc(C2OC(=O)c3ccccc32)c2ccccc12 (stereo not given) | > 17 µM | > 17 µM |  |
| O=C(O)c1ccc(NC(=O)c2ccccc2[Se][Se]c2ccccc2C(=O)Nc2ccc(C(=O)O)cc2)cc1 | 13.8 µM | 18.6 µM |  |
| O=C(O)Cc1ccc(SSc2ccc(CC(=O)O)cc2)cc1 | 46.8 µM and 129 µM | 1120 µM and > 200 µM |  |
| O=c1cc2c(n[nH]1)CCCC2 | > 708 µM | > 708 µM |  |
| COCn1c2ccc(OC(C)=O)cc2c2c(=O)oc(N(C)C)nc21 | > 200 µM | > 200 µM |  |
| COC(=O)C1(NC(=O)C(N)CC(=O)O)CC1(C)C (stereo not given) | > 200 µM | > 200 µM |  |

| SMILES | EC50 | IC50 | outcome |
| --- | --- | --- | --- |
| Cc1ccc(S(=O)(=O)Nn2c(S)c(C#N)c(-c3ccc(Cl)cc3)c(C#N)c2=O)cc1 | > 200 µM | 12 µM |  |
| C/C(=C\CO)CCC1=C(C=O)C[C@H](OC2OCC(O)C(O)C2O)C2[C@@](C)(CO)CCC[C@]12C (stereo not given in full) | > 263 µM | > 263 µM |  |
| N#Cc1n[nH]n(-c2ccc(Br)cc2)c1=O | > 200 µM | > 200 µM |  |
| N#CN=C(N)NC(=O)/C=C/C=C/c1ccc(Cl)cc1 |  |  | inactive |
| CSc1nnc(SCc2nn3c(=O)cc(C)nc3s2)s1 | > 200 µM | > 200 µM |  |
| O=S(=O)(O)c1cc(N=Nc2ccc(O)c3ncccc23)ccc1/C=C/c1ccc(N=Nc2ccc(O)c3ncccc23)cc1S(=O)(=O)O | > 105 µM | > 105 µM |  |
| CCOC(=O)/C=C/CCCC(N1CCCC1)n1nnc2ccccc21 (stereo not given) | > 200 µM | 3.31 µM |  |
| CC(NC(=O)c1ccccc1SC(=O)CCCCC[n+]1ccccc1)C(N)=O (stereo not given) | 2.75 µM | 30.2 µM |  |
| COC(=O)C1CCC(=S)N1C(C)=O (stereo not given) | > 200 µM | > 200 µM |  |
| CCC1=C(C)/C(=C/c2[nH]c(C(Br)Br)c(CC)c2C)N=C1C(Br)Br |  |  | inactive |
| COc1ccc2nc3cccc([N+](=O)[O-])c3c(NCCNCCN(C)C)c2c1 | > 2 µM | 0.105 µM |  |
| O=c1[nH]nc(Cc2ccccc2)n1/N=C\CC/C=N\n1c(Cc2ccccc2)n[nH]c1=O | > 200 µM | 37.2 µM |  |
| CCOC(=O)N1[C@@H]2CCC[C@@H]2C(=O)[C@@H]2CCC[C@@H]21 | > 200 µM | > 200 µM |  |
| COC(=O)C(CSSCC(NC(=O)CNC(=O)c1ccccc1)C(=O)OC)NC(=O)CNC(=O)c1ccccc1 (stereo not drawn) (I: Bz-Gly-Cys-OMe / II: Bz-Gly-Cys-OMe; disulfide I:2-II:2; configuration not given here) | > 117 µM | 38.9 µM |  |
| O=C1NC(=O)N2CCSC2(Cc2ccccc2)N1 (stereo not given) |  |  | inactive |
| Nc1nn2cc3c(nc2c1N=Nc1ccc(Cl)cc1)-c1ccccc1CC3 | > 100 µM | > 100 µM |  |
| Cc1cc2c(=O)c3ccccc3oc2c(C#N)c1C | > 20 µM | > 20 µM |  |
| O=C(Cc1nc2ccccc2s1)C(=O)Nc1cccc(Cl)c1 |  |  | inactive |
| Clc1nc(Nc2nc3ccccc3[nH]2)nc(Cl)c1Cc1ccccc1 |  |  | inactive |
| C=CC(=O)N1C/C(=C\c2ccccc2)C(=O)/C(=C/c2ccccc2)C1 | > 15.8 µM | 0.933 µM |  |
